Results reported in patent US11173151B2, “Substituted triazole derivatives and uses thereof” (BAYER AKTIENGESELLSCHAFT, priority 2017, dated 2021).

How the values were obtained:
human V1a receptor = target: T1, human V1a receptor (Homo sapiens, UniProt P37288); experiment: Cellular in vitro assay for determining vasopressin receptor activity, V1a receptor cell line (CHO, aequorin luminescence); assay type: cell-based; details: for IC50: CHO cell line transfected with human V1a receptor, [Arg]-vasopressin at EC50 concentration, read-out: IC50 hV1a; for ratio IC50 hV2/hV1a: selectivity ratio IC50 hV2 / IC50 hV1a
T1 construct: expressed in transfected cells; host or cells: CHO K1 (ATCC), also stably transfected with a modified aequorin
T1 sequence (P37288 whole entry): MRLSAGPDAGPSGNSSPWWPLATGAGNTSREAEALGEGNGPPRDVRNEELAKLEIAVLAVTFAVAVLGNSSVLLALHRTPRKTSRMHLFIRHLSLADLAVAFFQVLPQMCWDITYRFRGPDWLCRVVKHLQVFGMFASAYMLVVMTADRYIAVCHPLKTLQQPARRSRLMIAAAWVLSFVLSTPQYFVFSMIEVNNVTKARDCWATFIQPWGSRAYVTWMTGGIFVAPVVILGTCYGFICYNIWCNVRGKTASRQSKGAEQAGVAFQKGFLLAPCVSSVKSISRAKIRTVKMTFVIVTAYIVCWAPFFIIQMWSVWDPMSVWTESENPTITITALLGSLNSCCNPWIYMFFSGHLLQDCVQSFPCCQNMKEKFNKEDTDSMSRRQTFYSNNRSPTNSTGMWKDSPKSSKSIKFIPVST
Summary of the method: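 CHO K1/aequorin cells, coelenterazine 5 μg/ml o/n; cpd 10 min; [Arg]-vasopressin at EC50; luminescence read immediately; IC50.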

human V2 receptor = target: T2, human V2 receptor (Homo sapiens, UniProt P30518); experiment: Cellular in vitro assay for determining vasopressin receptor activity, V2 receptor cell line (CHO, CRE-luciferase); assay type: cell-based; details: CHO cell line transfected with human V2 receptor; [Arg8]-vasopressin at EC50 concentration; read-out: IC50 hV2
T2 construct: expressed in transfected cells; host or cells: CHO K1 (ATCC) expressing firefly luciferase under a CRE-responsive promoter
T2 sequence (P30518 whole entry): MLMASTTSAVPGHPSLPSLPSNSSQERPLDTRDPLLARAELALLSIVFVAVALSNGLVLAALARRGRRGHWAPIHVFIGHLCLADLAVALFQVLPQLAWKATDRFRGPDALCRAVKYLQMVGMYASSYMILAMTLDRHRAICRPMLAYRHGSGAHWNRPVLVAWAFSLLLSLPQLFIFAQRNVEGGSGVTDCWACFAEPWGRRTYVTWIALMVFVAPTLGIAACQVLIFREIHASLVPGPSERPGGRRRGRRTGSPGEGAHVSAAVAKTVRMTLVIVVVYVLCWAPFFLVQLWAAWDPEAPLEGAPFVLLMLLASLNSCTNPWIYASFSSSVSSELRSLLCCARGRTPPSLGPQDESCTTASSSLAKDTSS

SMILES	IC50 (human V1a receptor) [nM]	ratio IC50 hV2/hV1a (human V1a receptor)	IC50 (human V2 receptor) [nM]
O=C(NC1CC1)c1ccncc1-n1nc(Cn2nc(-c3ccc(Cl)cc3)n(C[C@H](O)C(F)(F)F)c2=O)nc1C(=O)N1CCS(=O)(=O)CC1 [Example 520, 3-{3-({3-(4-Chlorophenyl)-5-oxo-4-[(2S)-3,3,3-trifluoro-2-hydroxypropyl]-4,5-dihydro-1H-1,2,4-triazol-1-yl}methyl)-5-[(1,1-dioxidothiomorpholin-4-yl)carbonyl]-1H-1,2,4-triazol-1-yl}-N-cyclopropylpyridine-4-carboxamide]	295	2.3	665
CC1(NC(=O)c2ccncc2-n2nc(Cn3nc(-c4ccc(Cl)cc4)n(C[C@H](O)C(F)(F)F)c3=O)nc2C(=O)N2CCS(=O)(=O)CC2)CC1 [Example 521, 3-{3-({3-(4-Chlorophenyl)-5-oxo-4-[(2S)-3,3,3-trifluoro-2-hydroxypropyl]-4,5-dihydro-1H-1,2,4-triazol-1-yl}methyl)-5-[(1,1-dioxidothiomorpholin-4-yl)carbonyl]-1H-1,2,4-triazol-1-yl}-N-(1-methylcyclopropyl)pyridine-4-carboxamide]	6250	0.1	885
O=C1CN(C(=O)c2nc(Cn3nc(-c4ccc(Cl)cc4)n(C[C@H](O)C(F)(F)F)c3=O)nn2-c2ncccc2C(=O)NCC(F)(F)F)CCN1 [Example 524, 2-{3-({3-(4-Chlorophenyl)-5-oxo-4-[(2S)-3,3,3-trifluoro-2-hydroxypropyl]-4,5-dihydro-1H-1,2,4-triazol-1-yl}methyl)-5-[(3-oxopiperazin-1-yl)carbonyl]-1H-1,2,4-triazol-1-yl}-N-(2,2,2-trifluoroethyl)pyridine-3-carboxamide]	4650	0.7	3450
CC1(NC(=O)c2cccnc2-n2nc(Cn3nc(-c4ccc(Cl)cc4)n(C[C@H](O)C(F)(F)F)c3=O)nc2C(=O)N2CCNC(=O)C2)CC1 [Example 525, 2-{3-({3-(4-Chlorophenyl)-5-oxo-4-[(2S)-3,3,3-trifluoro-2-hydroxypropyl]-4,5-dihydro-1H-1,2,4-triazol-1-yl}methyl)-5-[(3-oxopiperazin-1-yl)carbonyl]-1H-1,2,4-triazol-1-yl}-N-(1-methylcyclopropyl)pyridine-3-carboxamide]	9400	0.7	6550
CC(C)(N)CNC(=O)c1nc(Cn2nc(-c3ccc(Cl)cc3)n(C[C@H](O)C(F)(F)F)c2=O)nn1-c1cnccc1C(=O)NCC(F)(F)F [Example 534, 3-{5-[(2-Amino-2-methylpropyl)carbamoyl]-3-({3-(4-chlorophenyl)-5-oxo-4-[(2S)-3,3,3-trifluoro-2-hydroxypropyl]-4,5-dihydro-1H-1,2,4-triazol-1-yl}methyl)-1H-1,2,4-triazol-1-yl}-N-(2,2,2-trifluoroethyl)pyridine-4-carboxamide]	180	20.1	3620

Now from value to compound:

IC50 (human V1a receptor) [nM]	ratio IC50 hV2/hV1a (human V1a receptor)	IC50 (human V2 receptor) [nM]	SMILES
1350	0.7	925	O=C(NCCC(F)(F)F)c1ccncc1-n1nc(Cn2nc(-c3ccc(Cl)cc3)n(C[C@H](O)C(F)(F)F)c2=O)nc1C(=O)N1CCS(=O)(=O)CC1 [Example 519, 3-{3-({3-(4-Chlorophenyl)-5-oxo-4-[(2S)-3,3,3-trifluoro-2-hydroxypropyl]-4,5-dihydro-1H-1,2,4-triazol-1-yl}methyl)-5-[(1,1-dioxidothiomorpholin-4-yl)carbonyl]-1H-1,2,4-triazol-1-yl}-N-(3,3,3-trifluoropropyl)pyridine-4-carboxamide]
75.5	10.3	780	O=C(NCC(F)(F)F)c1cccnc1-n1nc(Cn2nc(-c3ccc(Cl)cc3)n(C[C@H](O)C(F)(F)F)c2=O)nc1C(=O)N1CCS(=O)(=O)CC1 [Example 528, 2-{3-({3-(4-Chlorophenyl)-5-oxo-4-[(2S)-3,3,3-trifluoro-2-hydroxypropyl]-4,5-dihydro-1H-1,2,4-triazol-1-yl}methyl)-5-[(1,1-dioxidothiomorpholin-4-yl)carbonyl]-1H-1,2,4-triazol-1-yl}-N-(2,2,2-trifluoroethyl)pyridine-3-carboxamide]
97.5	29.7	2900	O=C(NCCC(F)(F)F)c1cccnc1-n1nc(Cn2nc(-c3ccc(Cl)cc3)n(C[C@H](O)C(F)(F)F)c2=O)nc1C(=O)N1CCS(=O)(=O)CC1 [Example 529, 2-{3-({3-(4-Chlorophenyl)-5-oxo-4-[(2S)-3,3,3-trifluoro-2-hydroxypropyl]-4,5-dihydro-1H-1,2,4-triazol-1-yl}methyl)-5-[(1,1-dioxidothiomorpholin-4-yl)carbonyl]-1H-1,2,4-triazol-1-yl}-N-(3,3,3-trifluoropropyl)pyridine-3-carboxamide]
530	9.9	5250	O=C(NC1CC1)c1cccnc1-n1nc(Cn2nc(-c3ccc(Cl)cc3)n(C[C@H](O)C(F)(F)F)c2=O)nc1C(=O)N1CCS(=O)(=O)CC1 [Example 530, 2-{3-({3-(4-Chlorophenyl)-5-oxo-4-[(2S)-3,3,3-trifluoro-2-hydroxypropyl]-4,5-dihydro-1H-1,2,4-triazol-1-yl}methyl)-5-[(1,1-dioxidothiomorpholin-4-yl)carbonyl]-1H-1,2,4-triazol-1-yl}-N-cyclopropylpyridine-3-carboxamide]
96.5	29.5	2850	CC1(NC(=O)c2cccnc2-n2nc(Cn3nc(-c4ccc(Cl)cc4)n(C[C@H](O)C(F)(F)F)c3=O)nc2C(=O)N2CCS(=O)(=O)CC2)CC1 [Example 531, 2-{3-({3-(4-Chlorophenyl)-5-oxo-4-[(2S)-3,3,3-trifluoro-2-hydroxypropyl]-4,5-dihydro-1H-1,2,4-triazol-1-yl}methyl)-5-[(1,1-dioxidothiomorpholin-4-yl)carbonyl]-1H-1,2,4-triazol-1-yl}-N-(1-methylcyclopropyl)pyridine-3-carboxamide]
